Data reported in patent US20050153361A1, “Therapeutic and diagnostic applications of protein disulphide isomerases” (priority 2003, published 2005).
“Also recorded” adds a separate entry of the source.

Tests used:
[1] = system: EndoPDI mRNA; assay: RNase protection analysis of EndoPDI mRNA after siRNA transfection; type: cell-based, human; conditions: HDMEC, 10 nM siRNA
Procedure: RNase Protection Assay. Total RNA was extracted from cells in culture using TRI reagent (Sigma, Poole, Dorset, UK). RNase protection assays were performed in duplicate on 10-30 μg of total RNA as described (16). […] The protected fragment size for EndoPDI was 300 nucleotides. In each assay, a positive and negative (tRNA only) control and undigested riboprobes were analysed. Intensity of signal, quantified on a PhosphorImager (Molecular Dynamics, Chesham, Buckinghamshire, United Kingdom) was calculated as the ratio of the signal of interest to U6 mRNA to correct for variations in loading.
(§1) Transfection of microvascular endothelial cells with siRNA: EndoPDI specific (5′-[…]-3′) and PDI specific (5′-[…]-3′) siRNA oligos were synthesized using the SilencerTM siRNA Construction kit (Ambion, Huntingdon, UK) following manufacturer's instructions. HDMEC (5×10^5 cells) were plated onto 0.2% gelatin coated 10 cm petri dishes and incubated for 24 h. Cells were then transfected with 10 nM EndoPDI and/or PDI siRNA using oligofectamine reagent (Invitrogen) according to the manufacturer's instructions. The cells were then incubated for 24 h prior to hypoxia for 16 h (0.1% O2, 5% CO2 and 94.9% N2) or continuation of normoxic exposure for 16 h before performing FACS analysis as described.

[2] = system: EndoPDI protein; assay: Western blotting of EndoPDI protein after siRNA transfection; type: cell-based, human; conditions: HDMEC, 10 nM siRNA
From the text: Production of polyclonal antibodies to EndoPDI and Western blotting; The peptide of sequence ADGEDGQDPHSKC was synthesized by the Protein and Peptide Chemistry Department of Cancer Research UK, using standard techniques. This sequence corresponds to amino acids 52 to 63 of the human EndoPDI protein sequence with an additional cysteine residue added to the C-terminus to enable coupling to a carrier protein. The peptide was coupled to Imject® Maleimide Activated mcKLH (Pierce, Rockford, USA) following the manufacturer's instructions and diluted with Freunds adjuvant before injection into rabbits. A standard immunisation protocol was followed with 200 μg immunogen used for the first injection and 100 μg immunogen for subsequent boosts. The test bleeds were screened against pre-bleeds by ELISA to identify the presence of antibodies to EndoPDI in the rabbit serum.
as §1

[3] = system: human dermal microvascular endothelial cells (HDMEC); assay: FACS analysis of apoptosis (Annexin V-FITC / propidium iodide) after siRNA transfection; type: cell-based; conditions: for cell population being apoptotic: 10 nM siRNA
Procedure: as §1
FACS Analysis: To distinguish apoptotic from necrotic cells, double staining for exposed phosphatidylserine and propidium iodide (PI) exclusion was performed as follows: Cells were harvested, washed twice with PBS and resuspended in binding buffer (10 mM HEPES/NaOH, pH 7.4, 140 mM NaCl, 2.5 mM CaC12). Five μl Annexin V-FITC antibody (Pharmingen, San Diego, USA) and 10 μl PI (50 μg/ml) were added to the cells. After incubation for 15 min in the dark at room temperature, the cells were analysed by a FACScan. Controls of unstained cells, cells stained with Annexin V-FITC only and cells stained with PI only were used to set up compensation and quadrants.

[4] = system: endothelin-1 secretion by HDMEC; assay: Endothelin-1 secretion by HDMEC measured by ELISA after siRNA treatment; type: cell-based, human; conditions: under hypoxia
Procedure: as §1
Measurement of endothelin-1 secretion by ELISA: The secretion of endothelin-1 by endothelial cells was measured using a human endothelin-1 ELISA (R&D Systems, Abindgdon, UK) following manufacturer's instructions. Briefly, 50,000 cells were treated with RNAi oligos as before, the medium collected and diluted 1/25 for use in the ELISA.

[5] = system: adrenomedullin secretion by HDMEC; assay: Adrenomedullin secretion by HDMEC measured by radioimmunoassay after siRNA treatment; type: cell-based, human; conditions: under hypoxia
Procedure: as §1
Measurement of adrenomedullin by Radioimmunoassay: The secretion of adrenomedullin by endothelial cells was measured using an adrenomedullin radioimmunoassay (Peninsula Laboratories Europe, Ltd, Merseyside, England) following manufacturer's instructions. Briefly, 50,000 cells were treated with RNAi oligos as before, the medium collected and used in the radioimmunoassay.

[6] = system: CD105 cell surface expression on HDMEC; assay: CD105 cell surface expression on HDMEC by FACS after siRNA treatment; type: cell-based, human; conditions: under hypoxia
Procedure: as §1
The cell surface expression of CD105 was quantified by incubating 10^5 cells per tube with 50 μl (10 μl/ml in PBS) of monoclonal antibody to CD105 on ice for 1 h and washed twice with cold PBS. After incubation with FITC-labelled rabbit anti-mouse F(ab)2 (1/40 DAKO) for 30 min on ice, the cells were washed and resuspended in 0.3 ml of 2% buffered formalin and analyzed on a FACScan.

[7] = hypoxia 16 h (0.1% O2), listed as siRNA specific to EndoPDI
[8] = normoxia, listed as siRNA specific to EndoPDI

Row | Substance | EndoPDI mRNA expression [1, 7] | EndoPDI mRNA expression ([1]; normoxia) | EndoPDI mRNA expression [1, 8] | EndoPDI protein expression [2, 7] | EndoPDI protein expression ([2]; normoxia) | EndoPDI protein expression [2, 8] | necrotic cell population ([3]; HDMEC, hypoxia) | apoptotic population compared with controls ([3]; HDMEC, hypoxia (0.1% O2, 16 h)) | cell population being apoptotic ([3]; HDMEC, hypoxia (0.1% O2, 16 h)) [%] | cell population being apoptotic ([3]; HDMEC, normoxia) [%] | HDMEC survival ([3]; normoxia) | endothelin-1 secretion [4] | adrenomedullin secretion [5] | CD105 cell surface expression [6] | share of the cell population with marked reduction in CD105 expression ([6]; two peaks apparent) [%] | apoptotic population compared with controls ([3]; HDMEC, normoxia)
1 | EndoPDI specific siRNA: EndoPDI specific siRNA oligo, 5′-GAAGCTGTGAAGTACCAGGTT-3′, synthesized with the Silencer siRNA Construction kit (listed as DNA, chemistry not given here) | loss of EndoPDI expression; also recorded: complete loss | completely blocked | complete loss | loss of EndoPDI expression; also recorded: complete loss | completely blocked | complete loss | significant increase | significant increase | 12 | 4.5 | no effect | even greater reduction | significantly reduced | marked reduction | 50 | –
2 | PDI specific siRNA: PDI specific siRNA oligo, 5′-GACCTCCCCTTCAAAGTTGTT-3′ (listed as DNA, chemistry not given here) [reference compound] | – | – | – | – | – | – | – | significant increase | 48 | 55 | – | significant decrease | little effect | little effect | – | significant increase
